From the supplement of paper PMC10307832

How the values were obtained:
Experiment in all cases: relative viability (nuclei count vs DMSO), 5 days (fraction); higher = more cells survive
Axitinib + Tozasertib = compound: CNC(=O)c1ccccc1Sc1ccc2c(/C=C/c3ccccn3)n[nH]c2c1 [Axitinib] + Cc1cc(Nc2cc(N3CCN(C)CC3)nc(Sc3ccc(NC(=O)C4CC4)cc3)n2)n[nH]1 [Tozasertib] (partner 0.1 µM)
How it was run: (§1)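 Each reported value is a median over duplicate plates. It expresses relative viability: treated-well nuclei count divided by vehicle-well nuclei count. Lung cancer cell lines in 1536-well plates were dosed by pin tool a day after seeding, alone with one drug or with a fixed anchor-drug dose plus five library-drug doses (not always all listed) in √10 steps, and nuclei were counted after 5 days.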

[1] = compound: CC1=CC=C(C=C1)C(=O)CN2C3=C(CCCC3)SC2=N [Pifithrin_alpha] + N=C(N)NC(=N)NCCc1ccccc1 [Phenformin] (partner 250 µM)
How it was run: as §1

[2] = compound: CC1=CC=C(C=C1)C(=O)CN2C3=C(CCCC3)SC2=N [Pifithrin_alpha] + CC(=O)Nc1cccc(-n2c(=O)n(C3CC3)c(=O)c3c(Nc4ccc(I)cc4F)n(C)c(=O)c(C)c32)c1 [Trametinib] (partner 0.02 µM)
How it was run: as §1

[3] = compound: CC1=CC=C(C=C1)C(=O)CN2C3=C(CCCC3)SC2=N [Pifithrin_alpha] + CS(=O)(=O)CCNCc1ccc(-c2ccc3ncnc(Nc4ccc(OCc5cccc(F)c5)c(Cl)c4)c3c2)o1 [Lapatinib] (partner 2 µM)
How it was run: as §1

NCI-H650
relative viability (Axitinib + Tozasertib; first compound 0.005 µM): 0.714
relative viability (Axitinib + Tozasertib; first compound 0.01581 µM): 0.734
relative viability (Axitinib + Tozasertib; first compound 0.05 µM): 0.699
relative viability (Axitinib + Tozasertib; first compound 0.1581 µM): 0.693
relative viability (Axitinib + Tozasertib; first compound 0.5 µM): 0.78
relative viability ([1]; first compound 3.162 µM): 0.49
relative viability ([1]; first compound 10 µM): 0.454
relative viability ([1]; first compound 31.62 µM): 0.421
relative viability ([1]; first compound 100 µM): 0.421
relative viability ([2]; first compound 3.162 µM): 0.947
relative viability ([2]; first compound 10 µM): 0.978
relative viability ([2]; first compound 31.62 µM): 0.785
relative viability ([2]; first compound 100 µM): 0.985
relative viability ([3]; first compound 3.162 µM): 1.11
relative viability ([3]; first compound 10 µM): 1.11
relative viability ([3]; first compound 31.62 µM): 0.532
relative viability ([3]; first compound 100 µM): 0.767
